Laboratory results as given in the OligoGym collection.
After the bases stand the sugars from the 5' end (letter, count) and the backbone: PS all phosphorothioate, else s phosphorothioate and o phosphodiester by linkage. Methylation of C is not given here. l = locked nucleic acid (LNA); d = 2'-deoxy (DNA)

Target: SNHG14
Details: ASO
[1] = Mouse Primary Neuronal Cell, 0.005 µM

Sequence | target mRNA inhibition (Human Neuronal Cell, 0.2 µM) | target mRNA inhibition (Human Neuronal Cell, 1 µM) | target mRNA inhibition (Human Neuronal Cell, 7.5 µM) | further results
CCTTTCCAATGAATCT (sugars l3 d10 l3, PS) | 45% | 60% |  | 
CCTTTCCAATGAATCTA (sugars l2 d11 l4, PS) | 53% | 59% |  | 
CTACATCTCATACTTGC (sugars l2 d13 l2, PS) | -11% | -20% |  | target mRNA inhibition (Human Neuronal Cell, 5 µM): 8%; target mRNA inhibition [1]: 90.4%
CTATTCTCAGTATTAT (sugars l3 d10 l3, PS) | 19% | 13% |  | 
CTATTTAATTTACACTT (sugars l3 d11 l3, PS) | 15% | 13% |  | 
CTCAAAGATCATTCTCA (sugars ldlldddddddlddlll, PS) |  |  | 69% | 
CTCATACTTGCTTTAAT (sugars l2 d13 l2, PS) | -18% | 13% |  | target mRNA inhibition (Human Neuronal Cell, 5 µM): 17%; target mRNA inhibition [1]: 84.1%
CTCCAACATAGATCCTC (sugars l3 d11 l3, PS) | 52% | 60% |  | 
CTCTCCTCAAGATCAAC (sugars l3 d11 l3, PS) | 23% | 42% |  | 
CTCTGCTTATAACTTT (sugars l4 d10 l2, PS) | 20% | 53% |  | 
CTGCCATCTTTATTTAT (sugars l4 d11 l2, PS) | 5% | 9% |  | 
CTGTACACAATCAACA (sugars l4 d10 l2, PS) | 54% | 63% |  | 
CTGTATACACCATCCC (sugars l2 d12 l2, PS) | 62% | 62% |  | 
CTGTATACACCATCCCA (sugars l1 d1 l1 d12 l2, PS) |  |  | 48% | 
CTGTATACACCATCCCA (sugars l1 d11 l2 d1 l2, PS) |  |  | 53% | 
CTGTATACACCATCCCA (sugars ldlddddddddddldll, PS) |  |  | 62% | 
CTGTATACACCATCCCA (sugars ldldlddddddddldll, PS) |  |  | 62% | 
CTGTTTATACCCTTTCCA (sugars l1 d3 l1 d11 l2, PS) |  |  | 50% | 
CTTACCAATAGTTACC (sugars l4 d10 l2, PS) | 45% | 65% |  | 
CTTAGACTTCACCTTTC (sugars l2 d11 l4, PS) | 49% | 41% |  | 
CTTCAAGAATTCTCTC (sugars l2 d10 l4, PS) | 44% | 43% |  | 
CTTGACTACACATCTT (sugars l3 d10 l3, PS) | 50% | 54% |  | 
CTTTCCATTTATTTCCATT (sugars lddddldddddddddldll, PS) |  |  | 59% | 

Sequence | target mRNA inhibition (Human Neuronal Cell, 0.2 µM) | target mRNA inhibition (Human Neuronal Cell, 1 µM) | target mRNA inhibition (Human Neuronal Cell, 7.5 µM) | further results
CTTTCCATTTATTTCCATTT (sugars ldddddddddddddldldll, PS) |  |  | 47% | 
CTTTTAACCAGAGTG (sugars l4 d7 l4, PS) |  |  | 54% | 
CTTTTAACCAGAGTGG (sugars l4 d9 l3, PS) |  |  | 65% | 
CTTTTAACCAGAGTGGCAT (sugars l3 d13 l3, PS) |  |  | 62% | 
GAAAATCTCAACTACCATT (sugars l2 d1 l2 d10 l4, PS) |  |  | 60% | 
GAAAATCTCAACTACCATT (sugars l2 d12 l5, PS) |  |  | 49% | 
GAAAATCTCAACTACCATT (sugars l4 d10 l1 d1 l3, PS) |  |  | 45% | 
GAAAATCTCAACTACCATT (sugars ldllddddddddldldlll, PS) |  |  | 57% | 
GAACAACTTCTATCAT (sugars l2 d10 l4, PS) | 16% | 28% |  | 
GAATTCTTTATTCCTCC (sugars l2 d11 l4, PS) | 45% | 41% |  | 
GATAATTCCAAATCCC (sugars l2 d10 l4, PS) | 16% | 6% |  | 
GATCATTCTCAACAATT (sugars l2 d1 l2 d6 l6, PS) |  |  | 10% | 
GCAACATTATTAACCACCT (sugars ldddddddddddldlddll, PS) |  |  | 41% | 
GCAACATTATTAACCACCT (sugars ldldldddddddlddddll, PS) |  |  | 52% | 
GCAACATTATTAACCACCT (sugars ldlldlddddddlddldll, PS) |  |  | 44% | 
GCACATTCTTTCTATAC (sugars l2 d1 l1 d11 l2, PS) |  |  | 61% | 
GCACATTCTTTCTATACC (sugars l1 d4 l1 d9 l3, PS) |  |  | 59% | 
GCACATTCTTTCTATACC (sugars l1 d4 l1 d10 l2, PS) |  |  | 45% | 
GCACATTCTTTCTATACC (sugars l1 d12 l1 d2 l2, PS) |  |  | 47% | 
GCACATTCTTTCTATACC (sugars ldldldddddddddddll, PS) |  |  | 61% | 
GCACATTCTTTCTATACCT (sugars ldldlddddddddddddll, PS) |  |  | 57% | 
GCCAATACCCACAAAC (sugars l3 d10 l3, PS) | 11% | 33% |  | 
